Read-outs that look alike come from different tables or passages of the source.
Experiments:
[1] = system: all cancer cell lines (A2780, A2780cis, G361, A549, HeLa, LNCaP, THP-1); test: Antiproliferative effect of starting compounds on all cancer cell lines; conditions: read-out: IC50, in vitro cytotoxicity of starting compounds on all cancer cell lines, 24 h
[2] = system: TNF-α secretion, LPS-stimulated THP-1 cells; test: LPS-induced TNF-α secretion in THP-1 macrophages (ELISA); type: cell-based, human; conditions: 0.2 μM; for increase of TNF-α secretion, factor in comparison to vehicle: LPS-activated macrophages, 24 h; for TNF-α secretion: 1 h pre-treatment, then LPS 24 h
Experimental: (§1) To determine the influence of the tested complexes on the TNF-α and IL-1β secretions, the human monocytic leukemia cell line THP-1 was used. The cells were cultivated at 37°C in the RPMI 1640 medium supplemented with 2 mM L-glutamine, 10% fetal bovine serum (FBS), 100 U/mL of penicillin and 100 μg/mL of streptomycin in a humidified atmosphere containing 5% CO2. The stabilized cells (3rd–20th passage) were split into microtitration plates to get a concentration of 100 000 cells/mL and the differentiation to macrophages was induced by a phorbol myristate acetate (PMA) as we described previously.
(§2) Differentiated macrophages were pretreated for 1 h with 0.2 μM solutions of the tested complexes, prednisone or CuSO4 · 5 H2O dissolved in DMSO (the final DMSO concentration was 0.1%) and with 0.1% DMSO solution itself (the experimental group called vehicle); the given concentrations of the tested compounds lack the cytotoxic effect. The inflammatory response was triggered by adding 1.0 μg/mL lipopolysaccharide (LPS) dissolved in water to pretreated macrophages, control cells were without the LPS treatment. Each experiment was repeated three-times.
(§3) Macrophages pretreated with the tested compounds for 1 h were incubated with LPS for next 24 h. After this period, the medium was collected and the concentration of TNF-α and IL-1β was measured by Instant ELISA kit (eBioscience, Vienna, Austria) according to the manufacturer’s manual.

[3] = system: IL-1β secretion, LPS-stimulated THP-1 cells; test: LPS-induced IL-1β secretion in THP-1 macrophages (ELISA); type: cell-based, human; conditions: 0.2 μM; for increase of IL-1β secretion, factor: LPS-activated cells, 24 h; for IL-1β secretion: 1 h pre-treatment, then LPS 24 h
Experimental: as §1, §2, §3

[4] = system: aryl hydrocarbon receptor (AhR) transcriptional activity; test: AhR gene reporter assay in AZ-AhR cells; type: cell-based, human; conditions: 24 h; complexes 10 nM – 5 μM; TCDD 10 pM – 10 μM
[5] = system: THP-1 monocytic leukemia cells; test: In vitro cytotoxicity, WST-1 test, THP-1; type: cell-based, human; conditions: 24 h, WST-1, serum-free medium; read-out: IC50 ± SD, THP-1
Experimental: Figure S7. […] The cells were plated at 96-well dishes and cultured according manufacturer instructions. The tested compounds were applied to the cells for 24 h in concentrations ranging from 0.01 to 50 µM. The tested compounds were applied to the cells for 24 h. The cytotoxicity was assessed by the MTT test, measurements were performed in triplicate, and each cytotoxicity experiment was repeated three times. The data are expressed as IC50 ± SD (μM).

[6] = system: A549 lung carcinoma cells; test: In vitro cytotoxicity, MTT assay, A549; type: cell-based, human; conditions: 24 h, read-out: IC50 ± SD, A549
Experimental: Figure S1. […] The cells were plated at 96-well dishes and cultured according manufacturer instructions. The tested compounds were applied to the cells for 24 h in concentrations ranging from 0.01 to 50 µM. The tested compounds were applied to the cells for 24 h. The cytotoxicity was assessed by the MTT test, measurements were performed in triplicate, and each cytotoxicity experiment was repeated three times. The data are expressed as IC50 ± SD (μM).

[7] = system: LNCaP androgen-sensitive prostate adenocarcinoma cells; test: In vitro cytotoxicity, MTT assay, LNCaP; type: cell-based, human; conditions: 24 h, read-out: IC50 ± SD, LNCaP
Experimental: Figure S6. […] The cells were plated at 96-well dishes and cultured according manufacturer instructions. The tested compounds were applied to the cells for 24 h in concentrations ranging from 0.01 to 50 µM. The tested compounds were applied to the cells for 24 h. The cytotoxicity was assessed by the MTT test, measurements were performed in triplicate, and each cytotoxicity experiment was repeated three times. The data are expressed as IC50 ± SD (μM).

[8] = system: G361 malignant melanoma cells; test: In vitro cytotoxicity, MTT assay, G361; type: cell-based, human; conditions: 24 h, read-out: IC50 ± SD, G361
Experimental: Figure S3. […] The cells were plated at 96-well dishes and cultured according manufacturer instructions. The tested compounds were applied to the cells for 24 h in concentrations ranging from 0.01 to 50 µM. The tested compounds were applied to the cells for 24 h. The cytotoxicity was assessed by the MTT test, measurements were performed in triplicate, and each cytotoxicity experiment was repeated three times. The data are expressed as IC50 ± SD (μM).

[9] = system: A2780cis cisplatin-resistant ovarian carcinoma cells; test: In vitro cytotoxicity, MTT assay, A2780cis; type: cell-based, human; conditions: for IC50: 24 h, MTT, read-out: IC50 ± SD, A2780cis; for IC50(A2780cis)/IC50(A2780) ratio (resistance factor): in comparison with cisplatin
Experimental: Figure S5. […] The cells were plated at 96-well dishes and cultured according manufacturer instructions. The tested compounds were applied to the cells for 24 h in concentrations ranging from 0.01 to 50 µM. The tested compounds were applied to the cells for 24 h. The cytotoxicity was assessed by the MTT test, measurements were performed in triplicate, and each cytotoxicity experiment was repeated three times. The data are expressed as IC50 ± SD (μM).

[10] = system: primary human hepatocytes (HH1); test: Toxicity to primary human hepatocytes; type: cell-based; conditions: 24 h, MTT; read-out: IC50 ± SD, HH1 (toxicity to primary human hepatocytes)
[11] = system: A2780 ovarian carcinoma cells; test: In vitro cytotoxicity, MTT assay, A2780; type: cell-based, human; conditions: 24 h, read-out: IC50 ± SD, A2780
Experimental: Figure S4. […] The cells were plated at 96-well dishes and cultured according manufacturer instructions. The tested compounds were applied to the cells for 24 h in concentrations ranging from 0.01 to 50 µM. The tested compounds were applied to the cells for 24 h. The cytotoxicity was assessed by the MTT test, measurements were performed in triplicate, and each cytotoxicity experiment was repeated three times. The data are expressed as IC50 ± SD (μM).

[12] = system: HeLa cervix epitheloid carcinoma cells; test: In vitro cytotoxicity, MTT assay, HeLa; type: cell-based, human; conditions: 24 h, read-out: IC50 ± SD, HeLa
Experimental: Figure S2. […] The cells were plated at 96-well dishes and cultured according manufacturer instructions. The tested compounds were applied to the cells for 24 h in concentrations ranging from 0.01 to 50 µM. The tested compounds were applied to the cells for 24 h. The cytotoxicity was assessed by the MTT test, measurements were performed in triplicate, and each cytotoxicity experiment was repeated three times. The data are expressed as IC50 ± SD (μM).

Row | SMILES | increase of TNF-α secretion, factor in comparison to vehicle [2] | increase of IL-1β secretion, factor [3] | IC50 [5] [nM] | IC50 [6] [nM] | IC50 [7] [nM] | IC50 [8] [nM] | IC50 [9] [nM] | IC50 [10] [nM] | IC50 [11] [nM] | IC50 [12] [nM] | also measured
1 | F[B-](F)(F)F.F[B-](F)(F)F.[Cu+2] [Cu(BF4)2 · H2O] | – | – | – | – | – | – | – | – | – | – | IC50 [1]: > 50000 nM
2 | O=[N+]([O-])[O-].O=[N+]([O-])[O-].[Cu+2] [Cu(NO3)2 · 3H2O] | – | – | – | – | – | – | – | – | – | – | IC50 [1]: > 50000 nM
3 | O.O.O.O.O.O=S(=O)([O-])[O-].[Cu+2] [CuSO4·5H2O, reference compound] | 1.4 | ~1.6 | – | – | – | – | – | – | – | – | –
4 | O=c1c(O)c(-c2ccccc2)[nH]c2ccccc12 [Hqui, 2-phenyl-3-hydroxy-4(1H)-quinolinone] | – | – | – | – | – | – | – | – | – | – | IC50 ([1]; Homo sapiens): > 50000 nM
5 | Clc1cc2c(cc1Cl)Oc1cc(Cl)c(Cl)cc1O2 [TCDD, 2,3,7,8-tetrachlorodibenzo-p-dioxin] | – | – | – | – | – | – | – | – | – | – | luciferase activity in AZ-AhR cells [4]: strongly, dose-dependently induced
6 | c1ccc(-c2ccnc3c2ccc2c(-c4ccccc4)ccnc23)cc1 [bphen, bathophenanthroline] | – | – | – | – | – | – | – | – | – | – | IC50 [1]: > 50000 nM
7 | O.O=[N+]([O-])[O-].O=c1c([O-])c(-c2ccccc2)[nH]c2ccccc12.[Cu+2].c1cnc2c(c1)ccc1cccnc12 [compound 1, [Cu(qui)(phen)]NO3 · H2O] | ~ 1.25 | practically no influence | 2000 ± 100 | 2500 ± 400 | 2400 ± 600 | 820 ± 150 | 830 ± 300 | > 10000 | 650 ± 280 | 2900 ± 300 | –
8 | F[B-](F)(F)F.O=c1c([O-])c(-c2ccccc2)[nH]c2ccccc12.[Cu+2].c1cnc2c(c1)ccc1cccnc12 [compound 2, [Cu(qui)(phen)]BF4] | ~ 1.25 | practically no influence | 1700 ± 200 | 3900 ± 1200 | 1900 ± 600 | 640 ± 200 | 1700 ± 600 | 20400 ± 1200 | 520 ± 100 | 2700 ± 600 | –
9 | Cc1cc2cccnc2c2ncccc12.O.O=[N+]([O-])[O-].O=c1c([O-])c(-c2ccccc2)[nH]c2ccccc12.[Cu+2] [compound 3, [Cu(qui)(mphen)]NO3 · H2O] | ~ 1.25 | practically no influence | 1500 ± 300 | 2500 ± 600 | 2100 ± 600 | 530 ± 220 | 780 ± 70 | > 10000 | 380 ± 30 | 2600 ± 400 | –
10 | Cc1cc2cccnc2c2ncccc12.F[B-](F)(F)F.O.O=c1c([O-])c(-c2ccccc2)[nH]c2ccccc12.[Cu+2] [compound 4, [Cu(qui)(mphen)]BF4 · H2O] | 1.6 | 1.6 | 1100 ± 400 | 2500 ± 600 | 1500 ± 600 | 530 ± 90 | 560 ± 150 | 9300 ± 600 | 360 ± 50 | 2400 ± 1000 | –
11 | O.O=[N+]([O-])[O-].O=c1c([O-])c(-c2ccccc2)[nH]c2ccccc12.[Cu+2].c1ccc(-c2ccnc3c2ccc2c(-c4ccccc4)ccnc23)cc1 [compound 5, [Cu(qui)(bphen)]NO3 · H2O] | 1.8 | 6.9 | 570 ± 80 | 1700 ± 300 | 740 ± 210 | 960 ± 30 | 730 ± 80 | 3600 ± 200 | 660 ± 70 | 1000 ± 200 | TNF-α secretion [2]: 2873 ± 238 pg/mL; IL-1β secretion [3]: 1177 ± 128 pg/mL; IC50(A2780cis)/IC50(A2780) ratio (resistance factor) [9]: practically two times lower
12 | F[B-](F)(F)F.O=c1c([O-])c(-c2ccccc2)[nH]c2ccccc12.[Cu+2].c1ccc(-c2ccnc3c2ccc2c(-c4ccccc4)ccnc23)cc1 [compound 6, [Cu(qui)(bphen)]BF4] | 2 | 6.4 | 560 ± 100 | 1300 ± 400 | 620 ± 80 | 720 ± 60 | 700 ± 200 | 5300 ± 300 | 570 ± 110 | 1300 ± 400 | TNF-α secretion [2]: 3284 ± 139 pg/mL; IL-1β secretion [3]: 1087 ± 101 pg/mL; IC50(A2780cis)/IC50(A2780) ratio (resistance factor) [9]: practically two times lower
13 | Cc1cc2cccnc2c2ncccc12 [mphen, 5-methyl-1,10-phenanthroline] | – | – | – | – | – | – | – | – | – | – | IC50 ([1]; Homo sapiens): > 50000 nM
14 | c1cnc2c(c1)ccc1cccnc12 [phen, 1,10-phenanthroline] | – | – | – | – | – | – | – | – | – | – | IC50 ([1]; Homo sapiens): > 50000 nM
15 | C[C@]12C=CC(=O)C=C1CC[C@@H]1[C@@H]2C(=O)C[C@@]2(C)[C@H]1CC[C@]2(O)C(=O)CO [prednisone, reference compound] | – | – | – | – | – | – | – | – | – | – | TNF-α secretion [2]: 1173 ± 85 pg/mL; IL-1β secretion [3]: 118.5 ± 4.8 pg/mL

From PMC3556092, “Cellular responses induced by Cu(II) quinolinonato complexes in human tumor and hepatic cells” (Chemistry Central Journal, 2012)
